Measured values reported in patent publication US20240208992A1, “MACROCYCLES AS CFTR MODULATORS” (Idorsia Pharmaceuticals Ltd, priority 2021, published 2024).

Target: human F508del-CFTR (Homo sapiens, UniProt P13569, DEL508-508)
Experiment: F508del-CFTR cell surface expression (corrector activity), DiscoveRx ß-galactosidase complementation chemiluminescence assay in recombinant U2OS cell line;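 note: U2OS cells co-expressing ProLink-tagged F508del-CFTR and a membrane-anchored enzyme acceptor, where more surface CFTR restores β-galactosidase activity measured by chemiluminescence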
Conditions: U2OS cell line, 16h compound incubation; for EC50: EC50, F508del-CFTR cell surface expression, geomean values; for Emax: U2OS, in relation to the Emax of the corrector lumacaftor (=100%), arithmetic mean values

Sequence of human F508del-CFTR (P13569 with tags, fused parts or gaps DEL508-508): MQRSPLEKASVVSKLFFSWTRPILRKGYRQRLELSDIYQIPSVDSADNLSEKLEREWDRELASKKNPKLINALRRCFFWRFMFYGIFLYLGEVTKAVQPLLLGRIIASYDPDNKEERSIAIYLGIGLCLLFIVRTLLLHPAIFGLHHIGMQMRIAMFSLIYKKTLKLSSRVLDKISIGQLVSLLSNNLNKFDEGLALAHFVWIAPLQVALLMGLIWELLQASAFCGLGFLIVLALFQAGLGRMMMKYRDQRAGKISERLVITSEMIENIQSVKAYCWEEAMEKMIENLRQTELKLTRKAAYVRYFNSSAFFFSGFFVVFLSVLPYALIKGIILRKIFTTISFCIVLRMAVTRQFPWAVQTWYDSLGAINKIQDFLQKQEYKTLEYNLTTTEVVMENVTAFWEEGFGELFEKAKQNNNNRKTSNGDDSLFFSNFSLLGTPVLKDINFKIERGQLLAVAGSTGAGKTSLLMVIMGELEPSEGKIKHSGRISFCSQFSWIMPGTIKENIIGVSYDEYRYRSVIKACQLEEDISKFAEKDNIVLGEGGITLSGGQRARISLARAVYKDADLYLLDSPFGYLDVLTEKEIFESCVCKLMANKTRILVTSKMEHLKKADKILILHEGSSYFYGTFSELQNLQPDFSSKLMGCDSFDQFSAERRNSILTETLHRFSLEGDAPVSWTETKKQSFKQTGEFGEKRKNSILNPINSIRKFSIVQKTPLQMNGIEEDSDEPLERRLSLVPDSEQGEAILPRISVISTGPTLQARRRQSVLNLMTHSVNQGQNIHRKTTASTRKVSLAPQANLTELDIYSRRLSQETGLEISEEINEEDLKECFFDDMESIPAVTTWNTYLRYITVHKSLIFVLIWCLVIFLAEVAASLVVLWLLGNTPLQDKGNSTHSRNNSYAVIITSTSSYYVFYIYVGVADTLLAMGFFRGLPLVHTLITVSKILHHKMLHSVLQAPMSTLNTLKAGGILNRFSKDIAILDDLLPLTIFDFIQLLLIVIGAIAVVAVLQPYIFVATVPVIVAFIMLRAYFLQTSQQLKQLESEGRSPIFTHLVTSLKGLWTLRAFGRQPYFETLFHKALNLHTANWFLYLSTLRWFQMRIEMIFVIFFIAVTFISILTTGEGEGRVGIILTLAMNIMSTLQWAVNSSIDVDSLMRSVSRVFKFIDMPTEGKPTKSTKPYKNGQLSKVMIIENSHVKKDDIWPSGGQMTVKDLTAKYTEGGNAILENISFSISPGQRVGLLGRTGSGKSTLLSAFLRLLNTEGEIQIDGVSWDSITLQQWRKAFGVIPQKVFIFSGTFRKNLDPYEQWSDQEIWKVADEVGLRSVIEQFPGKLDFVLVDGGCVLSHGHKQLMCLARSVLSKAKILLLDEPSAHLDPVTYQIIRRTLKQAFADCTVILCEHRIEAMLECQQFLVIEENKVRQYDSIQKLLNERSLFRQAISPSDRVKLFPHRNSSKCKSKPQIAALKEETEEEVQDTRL

Row | Compound | EC50 | Emax
1 | COc1cccc2c1C(=O)N[C@H](C(=O)NCCc1ccc3c(c1)CCCO3)CC(=O)N(C)[C@@H](CC(C)C)C(=O)N(CCC1CCCCC1)CC(=O)N[C@H](Cc1ccccc1)CO2 (mixture of isomers) [Example 11, (3R,9S,13RS)-3-benzyl-N-(2-(chroman-6-yl)ethyl)-7-(2-cyclohexylethyl)-9-isobutyl-16-methoxy-10-methyl-5,8,11,15-tetraoxo-2,3,4,5,6,7,8,9,10,11,12,13,14,15-tetradecahydrobenzo[p][1]oxa[4,7,10,14]tetraazacycloheptadecine-13-carboxamide] | 182 nM | –
2 | Cc1csc(CCNC(=O)[C@@H]2CC(=O)N(C)[C@@H](CC(C)C)C(=O)N3CCCC[C@@H]3C(=O)N[C@H](Cc3ccccc3)COc3ccc4ncn(C)c4c3C(=O)N2)n1 (mixture of isomers) [Example 23, (8RS,12S,18aR,21R)-21-benzyl-12-isobutyl-5,11-dimethyl-N-(2-(4-methylthiazol-2-yl)ethyl)-6,10,13,19-tetraoxo-6,7,8,9,10,11,12,13,16,17,18,18a,19,20,21,22-hexadecahydro-5H,15H-imidazo[4′,5′:5,6]benzo[1,2-p]pyrido[2,1-f][1]oxa[4,7,10,14]tetraazacycloheptadecine-8-carboxamide] | 991 nM | –
3 | CC(C)C[C@H]1C(=O)N2CCCC[C@@H]2C(=O)N[C@H](Cc2ccccc2)COc2ccc3ncn(C)c3c2C(=O)N[C@H](C(=O)NCCc2cccc(-n3nccn3)c2)CC(=O)N1C (mixture of isomers) [Example 28, (8RS,12S,18aR,21R)-N-(3-(2H-1,2,3-triazol-2-yl)phenethyl)-21-benzyl-12-isobutyl-5,11-dimethyl-6,10,13,19-tetraoxo-6,7,8,9,10,11,12,13,16,17,18,18a,19,20,21,22-hexadecahydro-5H,15H-imidazo[4′,5′:5,6]benzo[1,2-p]pyrido[2,1-f][1]oxa[4,7,10,14]tetraazacycloheptadecine-8-carboxamide] | 603 nM | –
4 | COc1cc2c(cc1OC)C(=O)N[C@H](C(=O)NCCc1ccc3c(c1)OCO3)CC(=O)N(C)[C@@H](CC(C)C)C(=O)N(CCC(C)(C)OC)CC(=O)N[C@H](Cc1ccccc1)CO2 (mixture of isomers) [Example 156, (3R,9S,13RS)-N-(2-(benzo[d][1,3]dioxol-5-yl)ethyl)-3-benzyl-9-isobutyl-17,18-dimethoxy-7-(3-methoxy-3-methylbutyl)-10-methyl-5,8,11,15-tetraoxo-2,3,4,5,6,7,8,9,10,11,12,13,14,15-tetradecahydrobenzo[p][1]oxa[4,7,10,14]tetraazacycloheptadecine-13-carboxamide] | 647 nM | 123%
5 | CC(C)C[C@H]1C(=O)N(C[C@H]2CCCCO2)CC(=O)N[C@H](Cc2ccccc2)COc2ccc3ccccc3c2C(=O)N[C@H](C(=O)NCCc2ccc3c(c2)OCO3)CC(=O)N1C (mixture of isomers) [Example 162, (3RS,7S,13R)-N-(2-(benzo[d][1,3]dioxol-5-yl)ethyl)-13-benzyl-7-isobutyl-6-methyl-1,5,8,11-tetraoxo-9-(((R)-tetrahydro-2H-pyran-2-yl)methyl)-1,2,3,4,5,6,7,8,9,10,11,12,13,14-tetradecahydronaphtho[1,2-p][1]oxa[4,7,10,14]tetraazacycloheptadecine-3-carboxamide] | 472 nM | –
6 | COc1cccc(CCNC(=O)[C@@H]2CC(=O)N(C)[C@@H](CC(C)C)C(=O)N(C[C@H]3CCCCO3)CC(=O)N[C@H](Cc3ccccc3)COc3ccc4ccccc4c3C(=O)N2)c1 (mixture of isomers) [Example 164, (3RS,7S,13R)-13-benzyl-7-isobutyl-N-(3-methoxyphenethyl)-6-methyl-1,5,8,11-tetraoxo-9-(((R)-tetrahydro-2H-pyran-2-yl)methyl)-1,2,3,4,5,6,7,8,9,10,11,12,13,14-tetradecahydronaphtho[1,2-p][1]oxa[4,7,10,14]tetraazacycloheptadecine-3-carboxamide] | 519 nM | –
7 | COc1cccc2c1C(=O)N[C@H](C(=O)NCCc1ccc3c(c1)OCO3)CC(=O)N(C)[C@@H](CC1CC1)C(=O)N(CCC1CCCCC1)CC(=O)N[C@H](Cc1ccccc1)CO2 (mixture of isomers) [Example 274, (3R,9S,13RS)-N-(2-(benzo[d][1,3]dioxol-5-yl)ethyl)-3-benzyl-7-(2-cyclohexylethyl)-9-(cyclopropylmethyl)-16-methoxy-10-methyl-5,8,11,15-tetraoxo-2,3,4,5,6,7,8,9,10,11,12,13,14,15-tetradecahydrobenzo[p][1]oxa[4,7,10,14]tetraazacycloheptadecine-13-carboxamide] | 288 nM | 186%
8 | CN1C(=O)C[C@@H](C(=O)NCCc2ccc3c(c2)OCO3)NC(=O)c2c(ccc3ccccc23)OC[C@@H](Cc2ccccc2)NC(=O)CN(C[C@@H]2CCCCO2)C(=O)[C@@H]1CC1CCCC1 (mixture of isomers) [Example 284, (3RS,7S,13R)-N-(2-(benzo[d][1,3]dioxol-5-yl)ethyl)-13-benzyl-7-(cyclopentylmethyl)-6-methyl-1,5,8,11-tetraoxo-9-(((S)-tetrahydro-2H-pyran-2-yl)methyl)-1,2,3,4,5,6,7,8,9,10,11,12,13,14-tetradecahydronaphtho[1,2-p][1]oxa[4,7,10,14]tetraazacycloheptadecine-3-carboxamide] | 337 nM | –
9 | CN1C(=O)C[C@@H](C(=O)NCCc2ccc3c(c2)OCO3)NC(=O)c2c(ccc3ccccc23)OC[C@@H](Cc2ccccc2)NC(=O)CN(C[C@@H]2CCCCO2)C(=O)[C@@H]1CC1CCCCC1 (mixture of isomers) [Example 285, (3RS,7S,13R)-N-(2-(benzo[d][1,3]dioxol-5-yl)ethyl)-13-benzyl-7-(cyclohexylmethyl)-6-methyl-1,5,8,11-tetraoxo-9-(((S)-tetrahydro-2H-pyran-2-yl)methyl)-1,2,3,4,5,6,7,8,9,10,11,12,13,14-tetradecahydronaphtho[1,2-p][1]oxa[4,7,10,14]tetraazacycloheptadecine-3-carboxamide] | 239 nM | –
10 | CN1C(=O)C[C@@H](C(=O)NCCc2ccc3c(c2)OCO3)NC(=O)c2c(ccc3ccccc23)OC[C@@H](Cc2ccccc2)NC(=O)CN(C[C@H]2CCCCO2)C(=O)[C@@H]1CC1CCCC1 (mixture of isomers) [Example 286, (3RS,7S,13R)-N-(2-(benzo[d][1,3]dioxol-5-yl)ethyl)-13-benzyl-7-(cyclopentylmethyl)-6-methyl-1,5,8,11-tetraoxo-9-(((R)-tetrahydro-2H-pyran-2-yl)methyl)-1,2,3,4,5,6,7,8,9,10,11,12,13,14-tetradecahydronaphtho[1,2-p][1]oxa[4,7,10,14]tetraazacycloheptadecine-3-carboxamide] | 177 nM | –

More lines, main results first:

Row | EC50 | Compound | Emax
11 | 270 nM | COc1cccc2c1C(=O)N[C@H](C(=O)NCCc1ccc3c(c1)OCCCO3)CC(=O)N(C)[C@@H](CC(C)C)C(=O)N(CCC1CCCCC1)CC(=O)N[C@H](Cc1ccccc1)CO2 (mixture of isomers) [Example 12, (3R,9S,13RS)-3-benzyl-7-(2-cyclohexylethyl)-N-(2-(3,4-dihydro-2H-benzo[b][1,4]dioxepin-7-yl)ethyl)-9-isobutyl-16-methoxy-10-methyl-5,8,11,15-tetraoxo-2,3,4,5,6,7,8,9,10,11,12,13,14,15-tetradecahydrobenzo[p][1]oxa[4,7,10,14]tetraazacycloheptadecine-13-carboxamide] | –
12 | 187 nM | COc1cccc2c1C(=O)N[C@H](C(=O)NCCc1ccc3c(c1)OCC3)CC(=O)N(C)[C@@H](CC(C)C)C(=O)N(CCC1CCCCC1)CC(=O)N[C@H](Cc1ccccc1)CO2 (mixture of isomers) [Example 15, (3R,9S,13RS)-3-benzyl-7-(2-cyclohexylethyl)-N-(2-(2,3-dihydrobenzofuran-6-yl)ethyl)-9-isobutyl-16-methoxy-10-methyl-5,8,11,15-tetraoxo-2,3,4,5,6,7,8,9,10,11,12,13,14,15-tetradecahydrobenzo[p][1]oxa[4,7,10,14]tetraazacycloheptadecine-13-carboxamide] | –
13 | 269 nM | COc1cccc2c1C(=O)N[C@H](C(=O)NCCc1nc3ccccc3o1)CC(=O)N(C)[C@@H](CC(C)C)C(=O)N(CCC1CCCCC1)CC(=O)N[C@H](Cc1ccccc1)CO2 (mixture of isomers) [Example 16, (3R,9S,13RS)-N-(2-(benzo[d]oxazol-2-yl)ethyl)-3-benzyl-7-(2-cyclohexylethyl)-9-isobutyl-16-methoxy-10-methyl-5,8,11,15-tetraoxo-2,3,4,5,6,7,8,9,10,11,12,13,14,15-tetradecahydrobenzo[p][1]oxa[4,7,10,14]tetraazacycloheptadecine-13-carboxamide] | –
14 | 759 nM | COc1cccc(CCNC(=O)[C@@H]2CC(=O)N(C)[C@@H](CC(C)C)C(=O)N(C)CC(=O)N[C@H](Cc3ccccc3)COc3cc4c(cc3C(=O)N2)OCO4)c1OC (mixture of isomers) [Example 151, (7R,13S,17RS)-7-benzyl-N-(2,3-dimethoxyphenethyl)-13-isobutyl-11,14-dimethyl-9,12,15,19-tetraoxo-6,7,8,9,10,11,12,13,14,15,16,17,18,19-tetradecahydro-[1,3]dioxolo[4′,5′:4,5]benzo[1,2-p][1]oxa[4,7,10,14]tetraazacycloheptadecine-17-carboxamide] | –
15 | 668 nM | COc1cc2c(cc1OC)C(=O)N[C@H](C(=O)NCCc1ccc3c(c1)CCO3)CC(=O)N(C)[C@@H](CC(C)C)C(=O)N(C)CC(=O)N[C@H](Cc1ccccc1)CO2 (mixture of isomers) [Example 152, (3R,9S,13RS)-3-benzyl-N-(2-(2,3-dihydrobenzofuran-5-yl)ethyl)-9-isobutyl-17,18-dimethoxy-7,10-dimethyl-5,8,11,15-tetraoxo-2,3,4,5,6,7,8,9,10,11,12,13,14,15-tetradecahydrobenzo[p][1]oxa[4,7,10,14]tetraazacycloheptadecine-13-carboxamide] | –
